Measurements published in patent US11298353B2, “Anti-inflammatory composition” (OSTEONEUROGEN INC., priority 2019, dated 2022).

How the values were obtained:
[1] = test system: diseased human lung fibroblasts (DHLFs); test: Transcriptome analysis of TGF-β-treated diseased human lung fibroblasts; format: cell-based; conditions: TGF-β 10 ng/ml + compound 50 μM, genes up-regulated at p<0.005
Experimental: Using diseased human lung fibroblasts (DHLFs) isolated from idiopathic pulmonary fibrosis patients, transcriptomes were analyzed comparatively between a group treated with TGF-β (10 ng/ml) and a group treated with TGF-β (10 ng/ml)+the compound (Formula 2) (50 μM) of the present invention.

[2] = test system: ONGHEPA1 cell line; test: NOX4 expression in TGF-β-treated hepatic stellate cells (real-time PCR, ICC); format: cell-based, mouse; conditions: TGF-β 10 ng/ml + compound 50 μM, real-time PCR and ICC
Experimental: Using the ONGHEPA1 cell line (KCTC13086BP) which is a mouse hepatic stellate cell line, the expression of NOX4 in a group treated with TGF-β (10 ng/ml) and a group treated with TGF-β (10 ng/ml)+the compound (Formula 2; 50 μM) of the present invention was compared by real-time PCR and immunocytochemistry (ICC).

[3] = test system: ONGHEPA1 cell line; test: Reactive oxygen species production in TGF-β-treated hepatic stellate cells (H2DCFDA staining); format: cell-based, mouse; conditions: TGF-β 10 ng/ml + compound 50 μM
Experimental: (§1) Using the ONGHEPA1 cell line, the production of reactive oxygen species (ROS) in a group treated with TGF-β (10 ng/ml) and a group treated with TGF-β (10 ng/ml)+the compound (Formula 2; 50 μM) of the present invention was compared by cell staining H2DCFDA (ThermoFischer, D399) which is a reactive oxygen species staining reagent, and the expression of CCL2 and CCL7 was compared by real-time PCR.

[4] = test system: ONGHEPA1 cell line; test: CCL2 and CCL7 expression in TGF-β-treated hepatic stellate cells (real-time PCR); format: cell-based, mouse; conditions: TGF-β 10 ng/ml + compound 50 μM
Experimental: as §1

[5] = test system: RAW264.7 cell line; test: Expression of inflammatory factors in LPS-treated macrophages (real-time PCR or ELISA); format: cell-based; conditions: LPS 100 ng/ml + compound 25 or 50 μM, 24 hours
Text: In order to confirm the effect of the compound of the present invention in a special anti-inflammatory model, the anti-inflammatory effect of the compound of the present invention was examined using the RAW264.7 cell line (macrophage cell line).
Using the RAW264.7 cell line, the expression of inflammatory factors, INFα, IL-1β, CCL2 (MCP-1), CCL7 (MCP-3), CXCL2, CHOP and NOX1, in a group treated with LPS (lipopolysaccharide) and a group treated with LPS+the compound (Formula 2) of the present invention, was compared by real-time PCR or ELISA.
(§2) Specifically, the RAW264.7 cell line was cultured in RPMI liquid medium, and then divided into a normal control group (untreated), a group treated with LPS (100 ng/ml), and a group treated with the compound of the present invention (cells treated with 100 ng/ml of LPS and treated with 25 or 50 μM of the compound of the present invention). Each of the test groups treated was incubated for 24 hours, and then total RNA was extracted from the cell of each test group and synthesized into cDNA per 1 μg of total RNA, and real-time PCR for each inflammatory factor was performed. The real-time PCR was performed for […], and then the obtained data were statistically processed using t-test.

[6] = test system: RAW264.7 cell line; test: TNFα expression in macrophages treated with various concentrations of LPS (real-time PCR); format: cell-based; conditions: LPS 100 ng/ml to 10 μg/ml + compound 50 μM
Experimental: as §2
In addition, according to the same method as described above, the RAW264.7 cell line was treated with various concentrations (100 ng/ml to 10 μg/ml) of LPS, and the effect of treatment with 50 μM of the compound (Formula 2) of the present invention was examined.

[7] = biological target: T1, CD14 (Mus musculus, UniProt P10810); test: CD14 FITC immunofluorescence staining in LPS-treated RAW264.7 cells; format: cell-based; conditions: LPS 100 ng/ml + compound 50 μM
T1 construct: endogenous in cells; host or cells: RAW264.7
T1 sequence (P10810 16-336): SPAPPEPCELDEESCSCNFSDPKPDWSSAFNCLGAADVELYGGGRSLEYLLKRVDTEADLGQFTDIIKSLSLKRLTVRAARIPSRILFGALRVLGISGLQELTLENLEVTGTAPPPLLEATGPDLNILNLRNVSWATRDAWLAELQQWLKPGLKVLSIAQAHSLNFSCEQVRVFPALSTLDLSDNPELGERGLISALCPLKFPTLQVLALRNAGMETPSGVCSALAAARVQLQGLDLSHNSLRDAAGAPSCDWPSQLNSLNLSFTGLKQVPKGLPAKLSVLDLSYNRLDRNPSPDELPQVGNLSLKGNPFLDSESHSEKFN
Text: To verify this determination, the change in expression of an early inflammatory response stage factor (a factor involved in the early stage of LPS-induced inflammatory response) by treatment with the compound (Formula 2) of the present invention was examined by immunofluorescence staining using FITC.
Looking at the control group in FIG. 9 (see FIG. 10 which is an enlarged view), it can be seen that FITC fluorescence is concentrated on the surface (membrane portion) of the cell. […] However, looking at the LPS-treated group (see FIG. 10 which is an enlarged view), it can be seen that the cell changes into a circular shape and FITC fluorescence is distributed throughout the cell without being concentrated on the surface of the cell. This means that when treated with LPS, CD14 did bind to LPS and endocytosis occurred. In the case of the group treated with the compound of the present invention (see FIG. 12 which is an enlarged view), the same pattern as that in the control group appeared despite LPS treatment.

[8] = test system: CD14; test: CD14 expression in LPS-treated RAW264.7 cells (Western blot); format: cell-based; conditions: LPS 100 ng/ml + compound 50 μM, 5 to 15 minutes after LPS
Experimental: In addition, in order to examine the effect of the compound of the present invention on the expression of CD14, the expression of CD14 in a group treated with LPS (100 ng/ml) and a group treated with 50 μM of the compound (Formula 2) of the present invention was compared by Western blot analysis.

COc1ccc(-c2cc(=O)c3c(O)c(OC)c(OCCN4CCNC(=O)C4)cc3o2)cc1OC [Formula 2]
inhibition of TGF-β up-regulated gene expression: NOX4 [1]: selected genes included NOX4
increase in the expression of NOX4 [2]: inhibited
production of reactive oxygen species [3]: inhibited
expression of CCL2 [4]: inhibited
expression of CCL7 [4]: inhibited
expression of CCL2 (MCP-1) [5]: decreased
expression of CCL7 (MCP-3) [5]: decreased
expression of CHOP [5]: decreased
expression of CXCL2 [5]: decreased
expression of IL-1β [5]: decreased
expression of INFα [5]: decreased
expression of NOX1 [5]: decreased
expression of TNFα [6]: blocked the expression of TNFα regardless of the concentration of LPS
activity of CD14 involved in the early stage of inflammatory response [7]: inhibited
interaction between CD14 and LPS (CD14 endocytosis pattern) [7]: blocked the interaction between CD14 and LPS
increase in expression of CD14 [8]: decreased
